Results: patent US5393744A, “Glucosyl phosphotriesters of thymidine” (Institut Pasteur, priority 1988, dated 1995)

Columns and labels:
[1] = system: recombinant retrovirus of murine origin (MoMLV); assay: Residual virus (clones of βgal+ cells) after infection of mouse 3T3 test cells with LacZ recombinant MoMLV retrovirus; assay type: cell-based; settings: 3T3 cells; for residual virus (% not inhibited) at 10 µM: 10^-5 M; for residual virus (% not inhibited) at 1 µM: 10^-6 M
Method: The virus used is a recombinant retrovirus of murine origin (MoMLV) in which a reporter gene (LacZ) has been introduced.
Fixed amounts of LacZ recombinant retroviruses are placed in the presence of mouse infectable test cells (3T3) with or without the product to be tested. To each recombinant retrovirus corresponds a clone of β gal^+ cells. The number of clones of βgal^+ cells is read 48 hours after the infection. The % of the residual virus (not inhibited by the product) is indicated in the following table (mean of several independent experiments): […]

[2] = system: HIV-1 virus; assay: Effect of the products on the infectious potency of the HIV-1 virus in human T lymphocytes (reverse transcriptase activity); assay type: cell-based, HIV-1 virus (LAV strain); settings: treatment after viral absorption (FIG. 2)
Method: Each product was dissolved in DMSO at a concentration of 10^-3 M (stock solution), then in the culture medium immediately before use. The solution thus obtained was sterilized by filtration on a 0.22μ Millipore, then successive dilutions were made in the culture medium.
The cultures of human T lymphocytes are maintained in the medium RPMI 1640 containing 10% fetal calf serum (Seromeal), 1% of glummine (Gibco), 1% of antibiotics (PSN, Gibco), 10% of interleukin II (Biotest), 2 μg/ml of polybrene (Sigma) and a 1/2500 dilution of α-human semm-interferon. This medium is called complete medium. […]
Human lymphocytes stimulated beforehand by means of pHAp were infected by the HIV-1 virus (reverse transcriptase activity: 5000 cmp/10^6 cells). […] The viral production was monitored at each passage (and this for 13 days) by measuring the reverse transcriptase activity present in 1 ml of culture supernatant. […]
The production of the HIV-1 virus by human T cells treated or not by each product was regularly monitored by measuring the reverse transcriptase activity present in 1 ml of culture supernatant. […] After 1 hour of incubation of 37° C., the acid-insoluble products are precipitated by 20% trichloroacetic acid, filtered on 0.45μ Millipore, then the β radioactivity contained in these reaction products is measured with the aid of a Kontron scintillation counter.

[3] = system: HIV-1 virus; assay: Replication of HIV-1 in macrophages of sero-negative donors, continuous culture (reverse transcriptase activity); assay type: cell-based
Method: The drugs 6651, AZT, 6714 and ddT were diluted in DMSO.
The virus HIV-1 utilized is derived from a culture supernatant of CEM-LAV 1 cells; these latter are maintained by the addition at each passage (every 3 or 4 days) of uninfected CEM cells. The titre of the virus in the clarified culture supernatant is higher than 10^6 cpm/ml in reverse transcriptase activity and 10^3 infectious units/ml on lymphocytes of sero-negative donors.
The macrophages were obtained from a deleucocytation pocket. The mononucleated cells were separated on a Ficoll^R gradient. The cells were adjusted to 50.10^6 cells/ml in the RPMI 1640 medium (MBA) containing 20% fetal calf serum (Flow), 10 mM Hepes (Sigma), 1% of PSN and 1% of glutamine (Gibco). After 1 h of incubation at 4° C. with gentle shaking, the macrophages agglutinate among themselves. The agglutinated macrophages are sedimented for 15 mn at 4° C. The supernatant containing an enrichment in lymphocytes was removed and the pellet enriched in macrophages was diluted to 5.10^6 cells/ml in the medium previously described. The cell suspension was then placed in Petri dishes of 60 mm diameter and placed at 37° C. for 1 h 30. The unattached cells are removed and the washed cell carpet was then detached with a scraper. The cells thus recovered were used directly for the study.
For this study, the production of HIV-1 virus by infected macrophages in the presence or absence of the drugs 6714 or ddT and 6651 or AZT were monitored either in continuous culture for at least 30 days or after lysis of the macrophages at day +14 and infection of lymphocytes by this lysate.
For each test, 15.10^6 cells were or were not infected with the HIV-1 virus (6000 cpm/10^6 cells). After 1 h of absorption at 37° C., the cells were placed in 6-wells Costar plates and 5.10^-5 M or 10^-5 M of the drugs 6714 and ddT and 10^-5 M, 10^-6 M or 10^-7 M of the drugs 6651 and AZT were added to the culture medium. The medium was changed every 3 or 4 days and the reverse transcriptase activity was determined in the culture supernatant. The drugs were added at each passage to the culture medium at the respective concentrations indicated above.
3) Measurement of the reverse transcriptase activity
The reverse transcriptase activity is assayed starting from 1 ml of culture supernatant concentrated 100 times by ultra-centrifugation for 5 mn at 95.000 rpm (Rotor TL 100^R Beckman).
The pellet is resuspended in 10 μl of NTE Triton^R ×100 0.1%.
After 1 h at 37° C., the acid-insoluble products are precipitated by 20% trichloroacetic acid, filtered onto 0.45μ Millipore^R and the B radioactivity is measured with the aid of a Kontron scintillation counter.

[4] = NIH3T3, 48 hours after infection, mean of several experiments, read-out: % of the residual virus (not inhibited by the product)

| Compound | residual virus (% not inhibited) at 100 µM ([1]; NIH3T3, 10^-4 M, 48 hours after infection, mean of several experiments, read-out: % of the residual virus (not inhibited by the product)) | residual virus (% not inhibited) at 10 µM [1, 4] | residual virus (% not inhibited) at 1 µM [1, 4] | inhibition of the multiplication of the virus ([2]; 10^-5 M) | proliferation of the HIV-1 virus in the macrophages ([3]; 10^-5 M, 10^-6 M and 10^-7 M) | residual virus (% not inhibited) at 0.1 µM ([1]; NIH3T3, 10^-7 M, 48 hours after infection, mean of several experiments, read-out: % of the residual virus (not inhibited by the product)) | retroviral activity (in words) ([1]; recombinant MoMLV) | inhibition of the multiplication of the virus ([2]; dose proportional) | proliferation of the HIV-1 virus in the macrophages ([3]; 5.10^-5 M and 10^-5 M) |
| --- | --- | --- | --- | --- | --- | --- | --- | --- | --- |
| CCCCCCCCCCCCCCCCOP(=O)(OC[C@H]1OC(O)[C@H](O)[C@@H](O)[C@@H]1O)OC[C@H]1O[C@@H](n2cc(C)c(=O)[nH]c2=O)C[C@@H]1N=[N+]=[N-] (some centres unmarked) [compound 6651, 6-glucosyl hexadecyl 5'-(3'-azido) thymidinyl phosphate] | 11% | 65% | 94% | total inhibition of the multiplication of the virus | block the proliferation of the HIV-1 virus in the macrophages |  |  |  |  |
| Cc1cn([C@H]2CC[C@@H](COP(=O)(O)OC[C@H]3OC(O)[C@H](O)[C@@H](O)[C@@H]3O)O2)c(=O)[nH]c1=O (some centres unmarked) [compound 6714, 6-glucosyl 5'-(3'-deoxy)-thymidinyl phosphate] |  | 4% | 12% |  |  | 66% | active by themselves | partial inhibition proportional to the dose of the product used | block the proliferation of the HIV-1 virus in the macrophages |
